Results published in patent publication US8044089B2, “3-3-di-substituted-oxindoles as inhibitors of translation initiation” (President and Fellows of Harvard College, priority 2004, dated 2011).
Entries after “also recorded” stand apart in the source; their conditions may differ. Read-outs that look alike come from different tables or passages of the source.

Legend:
[1] = test system: intracellular Ca^2+ stores; assay: Ca2+ release from intracellular stores (FURA-2AM loaded cells); type: cell-based; set-up: key to Ca^2+ (Ca^2+ release from intracellular stores): a “+” denotes release; a “+/−” denotes inconclusive
Outline: (§1)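 Ca2+ release scored in FURA-2AM loaded cells as "+" (release) or "+/−" (inconclusive); some compounds also tested with ER-targeted FRET Ca2+ sensors. Ca2+-depleting compounds were then tested for eIF2α phosphorylation by Western blot with phospho-specific anti-eIF2α antibody.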

eIF2α = eIF2α phosphorylation measured by Western blot; type: cell-based; details: for eIF2α-P (phosphorylation of eIF2α measured by Western blot): unit or reference not given
Outline: as §1

A549 lung cancer cells = assay: SRB growth inhibition of A549 lung cancer cells; type: cell-based, human; details: for IC50: Homo sapiens
[2] = test system: endoplasmic reticulum (ER) Ca^2+; assay: Depletion of endoplasmic reticulum Ca2+ (ER-targeted cameleon proteins, FRET); type: cell-based; details: ER-targeted Ca^2+-sensitive proteins
Experimental: FIGS. 2A-2B depict compound 1181 activity. […] These proteins emit light and the Ca^2+ content is measured by fluorescent resonance energy transfer (FRET).
Without intending to be bound by theory, the mechanism of action of translation initiation inhibitors is set forth in FIG. 1, and includes the depletion (complete or partial depletion) of intracellular calcium (Ca^2+) stores and phosphorylation of eIF2α. Compounds synthesized using the approaches described herein were screened for their ability to partially deplete intracellular Ca^2+ stores using FURA-2AM loaded cells (Benzaquen et al. (1995) Nature Medicine, 1:534, incorporated herein by reference in its entirety for all purposes). A limited subset of compounds were further screened for their ability to deplete endoplasmic reticulum (ER) Ca^2+. The Ca^2+ content of the ER was monitored using ER-targeted, Ca^2+ sensitive, recombinant proteins. These recombinant proteins emitted light by fluorescent resonance energy transfer (FRET) as a function of the Ca^2+ content of the medium. […] Compounds that depleted Ca^2+ were further evaluated for their ability to phosphorylate eIF2α. eIF2α phosphorylation was measured by Western blot analysis using the phospho-specific anti-eIF2α antibody, as previously described (Aktas et al. (1998) Proc. Natl. Acad. Sci. USA, 95:8280, incorporated herein by reference in its entirety for all purposes).

[3] = test system: ternary complex in transgenic KLN cells; assay: Ternary complex assay; type: cell-based
Experimental: FIGS. 3A-3C depict compound 1181 activity. (A) depicts the drug induced phosphorylation of eIF2α protein in control (lane 1), positive control (lane 2) and 1181 (lane 3) measured using Western blot analysis.
(§2) Ternary complex assay was 8-fold over DMSO at 20 μM, and cell growth was inhibited at <1 μM. The plasma levels for this in mice were estimated using liquid chromatography and mass spectrometry (LC-MS). Compound 1430 was orally administered at 160 mg/kg, 240 mg/kg, and 320 mg/kg to DBA/2J mice and the plasma concentration was measured at three time points, one hour, three hours, and six hours, and is set forth in Table 15. The plasma was isolated from the mice by heart-lung puncture and the samples were processed and analyzed by LC-MS. The concentrations at each time and dose are in nmoles/mL of plasma (n.d.=not detected; X=not determined).

[4] = test system: squamous cell carcinoma (KLN) tumor; assay: Squamous cell carcinoma (KLN) tumor mass in mice; type: in vivo; details: DBA/2J mice, oral, 320 mg/kg/day, six weeks
[5] = Plasma levels after oral administration (LC-MS); type: in vivo; details: mouse, DBA/2J mice
Experimental: as §2

[6] = A549 lung cancer cells, unit inferred, read-out: SRB (IC50 for growth inhibition of A549 lung cancer cells)

IC50 (A549 lung cancer cells; [6]) [µM] | IC50 (A549 lung cancer cells; A549, read-out: cell growth was inhibited at) [µM] | concentration at 1 h ([5]; oral 160 mg/kg) [µM] | concentration at 3 h ([5]; oral 160 mg/kg) [µM] | concentration at 1 h ([5]; oral 240 mg/kg) [µM] | concentration at 3 h ([5]; oral 240 mg/kg) [µM] | concentration at 1 h ([5]; oral 320 mg/kg) [µM] | concentration at 3 h ([5]; oral 320 mg/kg) [µM] | concentration at 6 h ([5]; oral 320 mg/kg, 6 hours) [µM] | Structure (SMILES) | Ca^2+ (Ca^2+ release from intracellular stores) [1] | Ca^2+ release / depletion of intracellular Ca^2+ (in words) [1] | eIF2α phosphorylation (in words) (eIF2α) | eIF2α-P (phosphorylation of eIF2α measured by Western blot) (eIF2α) | growth inhibition of cancer cells (in words) (A549 lung cancer cells; A549) | depletion of ER Ca^2+ (in words) [2] | depletion of ternary complex (in words) ([3]; transgenic KLN cells) | squamous cell carcinoma (KLN) tumor mass [4] | increase in eIF2α phosphorylation over DMSO (eIF2α; at 5 μM, over DMSO) [fold] | Ternary complex assay over DMSO ([3]; at 20 μM, over DMSO) [fold]
3 |  |  |  |  |  |  |  |  | CC(C)(C)c1ccc(O)c(C2(c3ccccc3)C(=O)Nc3ccccc32)c1 (stereo not shown) [Compound 1181, 3-(5-tert-butyl-2-hydroxy-phenyl)-3-phenyl-1,3-dihydro-indol-2-one] | + | calcium (Ca^2+) release in a dose dependent manner | phosphorylated eIF2α | 5 | inhibited growth of a cancer cell line (A549) | depleted ER-Ca^2+; also recorded: depletion of endoplasmic reticulum (ER) Ca^2+ | depletion of ternary complex | decreased squamous cell carcinoma tumor mass in mice; also recorded: decrease in squamous cell carcinoma (KLN) tumor mass |  | 
0.9 | < 1 | 5.7 | 3.8 | 6.8 | 4 | 14 | 3.8 | 2.8 | Cc1cc(C2(c3ccccc3)C(=O)Nc3ccccc32)c(NS(=O)(=O)c2ccc(C(C)(C)C)cc2)cc1O (stereo not shown) [Compound 1430, 4-tert-butyl-N-[5-hydroxy-4-methyl-2-(2-oxo-3-phenyl-2,3-dihydro-1H-indol-3-yl)-phenyl]-benzenesulfonamide] | + |  |  | 4.8 |  |  |  |  | 5 | 8
